The source made the active and inactive calls. Rule as the data show it: actives have a measured IC50 and inactives only a lower limit.
Target: Envelope glycoprotein gp160 (Human immunodeficiency virus 1, UniProt Q6QLK5)
Assay: cell-free HIV fusion peptide-binding blockers – biochemical, uHTS, fluorescence dequenching, […] (AID 1986)

Sequence of Envelope glycoprotein gp160 (Q6QLK5 whole entry, the tested form may be a part): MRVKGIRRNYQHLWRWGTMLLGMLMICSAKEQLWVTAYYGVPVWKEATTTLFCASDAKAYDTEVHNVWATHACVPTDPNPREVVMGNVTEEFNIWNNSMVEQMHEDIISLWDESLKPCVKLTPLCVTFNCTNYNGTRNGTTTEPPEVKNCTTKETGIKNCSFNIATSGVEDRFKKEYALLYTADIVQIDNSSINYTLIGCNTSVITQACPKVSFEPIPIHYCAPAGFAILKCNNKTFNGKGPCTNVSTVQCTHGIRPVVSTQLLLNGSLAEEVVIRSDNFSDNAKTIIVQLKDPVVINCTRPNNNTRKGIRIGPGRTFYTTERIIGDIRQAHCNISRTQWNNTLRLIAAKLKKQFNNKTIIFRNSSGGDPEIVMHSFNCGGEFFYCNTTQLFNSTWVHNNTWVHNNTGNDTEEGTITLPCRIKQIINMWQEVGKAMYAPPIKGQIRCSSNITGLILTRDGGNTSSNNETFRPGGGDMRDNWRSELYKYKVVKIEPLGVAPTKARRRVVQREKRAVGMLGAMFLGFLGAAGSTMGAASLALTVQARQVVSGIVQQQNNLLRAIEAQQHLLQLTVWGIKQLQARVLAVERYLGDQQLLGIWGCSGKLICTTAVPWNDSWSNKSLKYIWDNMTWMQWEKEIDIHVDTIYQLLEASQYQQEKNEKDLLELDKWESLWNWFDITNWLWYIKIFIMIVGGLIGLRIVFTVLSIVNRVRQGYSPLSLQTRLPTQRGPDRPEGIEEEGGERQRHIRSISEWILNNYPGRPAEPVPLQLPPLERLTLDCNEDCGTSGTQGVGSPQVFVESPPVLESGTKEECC

**Q.** CS(=O)(=O)C1=NSC2=NC(=O)/C(=C\c3cccn3-c3ccc(Cl)cc3)C(=N)N21 was tested. Which IC50 did it give?
**A.** 18.5 µM (active)

**Q.** For CC(C)CS(=O)(=O)C1=NSC2=NC(=O)/C(=C\c3ccc(OC(=O)c4ccco4)cc3)C(=N)N21, which IC50 is on record?
**A.** 15.6 µM (active)

**Q.** For CSc1ccc(C(c2c(C(=O)O)[nH]c3ccccc23)c2c(C(=O)O)[nH]c3ccccc23)cc1, which IC50 is on record?
**A.** 8.99 µM (active)

**Q.** For CCOc1ccc(CCNC(=O)c2ccc3c(=O)[nH]c4c(C(=O)NC(C)C)sc(=S)n4c3c2)cc1, which IC50 is on record?
**A.** 62.5 µM (active)

**Q.** Which IC50 does the source give for COc1cc([N+](=O)[O-])cc(/C=N/NC(=O)c2cc(-c3ccccc3)nc3ccccc23)c1O here?
**A.** 30.3 µM (active)
